Test results reported in patent US9624235B2, “Compounds and methods for inhibition of AP endonuclease-1/redox factor-1 (HAPE1) activity” (University of Pittsburgh—Of the Commonwealth System of …, priority 2012, dated 2017).
pKi: −log10 of the molar value.

Legend:
[1] = system: T98G cells; test: Potentiation of MeLex cytotoxicity, short term (72 h) MTS assay; format: cell-based, human
Method: Cytotoxic Potentiation of Various DNA Damaging Agents. T98G cells maintained in growth medium were resuspended in fresh growth medium and seeded into 96-well plates at 2000 cells/well (short term cytotoxicity) or 100 cells/well (long term cytotoxicity) as described in the previous section. After 24 h, the cells were treated with serial dilutions of various DNA damaging drugs in absence or presence of APE-1 inhibitors. At the end of the treatment period, cell survival was assayed using CellTiter 96 AQueous or CyQUANT kits for the short- and long-term studies respectively.
(§1) Toxicity. It was assumed that inhibition of APE-1 activity would be lead to toxicity since genetic deletion of the protein is lethal to cells. […] The toxicities were also determined in combination with the DNA minor groove methylating agent, MeLex. MeLex efficiently and selectively generates N3-methyladenine, which is converted into an abasic site by a BER glycosylase and/or hydrolytic depurination. The T98G cell line is relatively resistant to DNA damaging anticancer agents due to expression of multiple drug resistance proteins and O^6-alkylguanine-DNA alkyltransferase. […] A goal of the development of APE-1 inhibitors is to determine if they can be used to enhance the activity of DNA alkylating agents.

[2] = system: T98G cells; test: Short term (72 h) MTS cytotoxicity assay; format: cell-based, human
Method: (§2) Cytotoxic Effects of APE-1 Inhibitors on Cultured Human Glioblastoma (T98G) Cells. Human glioblastoma cells (T98G) were maintained in growth medium as described above. […] The cells were allowed to attach and grow for 24 h, and then treated with serial dilutions of the drug for 72 h. After treatment, viable cells were measured by an MTS assay using the CellTiter 96 AQueous kit (Promega) as per manufacturer's instructions. […] The cells were allowed to attach and grow for 24 h and treated with serial dilutions of the drug for 240 h. After treatment, viable cells were measured using the CyQUANT cell proliferation assay kit (Invitrogen) as per manufacturer's instructions.
as §1

[3] = system: MOLT-4; test: NCI 60 cell line growth inhibition; format: cell-based; details: Homo sapiens; MOLT-4 line
[4] = system: T98G cells; test: Long term (10-day) CyQUANT cytotoxicity assay; format: cell-based, human
Method: as §2, §1

[5] = system: SK-MEL-5 melanoma cells; test: Combination of APE1 inhibitor 4 with approved anticancer drugs, NCI60 cell line assay; format: cell-based; details: preliminary screen
Excerpt: FIG. 5. An example of the enhanced activity of vemurafenib in combination with APE1 inhibitor 4 in SK-MEL-5 melanoma cells. Matric controls are run in singlet on each matrix and compared to replicate (n=10) controls for vemurafenib and 4.
APE1 Inhibitor 4 Enhances the Toxicity of Anticancer Drugs in the NCl60 Cell Line Assay—In a preliminary screen using 10 randomly selected cell lines, the effect of APE1 inhibitor 4 on the growth of 20 recently approved non-genotoxic anticancer drugs was assayed.

[6] = target: APE-1 activity in T98G cell nuclear lysates (Homo sapiens (Human), UniProt P27695); test: Molecular beacon assay in T98G cell nuclear extracts; format: biochemical
Method: Isolation and Assay of APE-1 Protein from Nuclear Extracts of Glioma Cells. Human glioblastoma cells (T98G) were maintained in growth medium, i.e., Eagle's Minimum Essential Medium (EMEM) with 10% fetal bovine serum (FBS), […] gentamycin, 1×MEM non-essential amino acids and 1 mM sodium pyruvate. Cells were harvested by Trypsin-EDTA treatment, washed with 1×PBS and nuclear proteins isolated using the CelLytic NuCLEAR Extraction kit (Sigma-Aldrich) as per manufacturer's instructions. Isolated nuclear proteins were estimated colorimetrically (BCA protein assay) and stored at −80° C. (long term) or at −20° C. during regular use. To assay APE-1 activity in T98G cells, nuclear extracts were serially diluted in 10 mM HEPES, 50 mM KCl, 1 mM DTT, 20% (v/v) glycerol and the activities measured via the molecular beacon assay (as described above). […] EC2 nM of nuclear extracts was incubated with 2 to 500 nM hairpin DNA substrate and the V0 measured for each value of [S]. Finally, the apparent KM* was deduced using the software algorithm in Prism (as described previously), and the KM* was used to determine the apparent Ki*. Inhibition of EC2 nM APE-1 activity by the inhibitors was assayed via the molecular beacon assay (described above).
Inhibition of APE-1 Activity in Nuclear Lysates. The ability of 1-5 and 8 to block APE-1 endonuclease activity in a complex mixture of proteins from T98G cell nuclear lysates was tested using the molecular beacon assay. The APE-1 activity in the lysates was standardized to give ˜90% turnover of 25 nM substrate in 10 min.

APE-1 activity in T98G cell nuclear lysates, sequence (P27695 whole entry, stated change not applied): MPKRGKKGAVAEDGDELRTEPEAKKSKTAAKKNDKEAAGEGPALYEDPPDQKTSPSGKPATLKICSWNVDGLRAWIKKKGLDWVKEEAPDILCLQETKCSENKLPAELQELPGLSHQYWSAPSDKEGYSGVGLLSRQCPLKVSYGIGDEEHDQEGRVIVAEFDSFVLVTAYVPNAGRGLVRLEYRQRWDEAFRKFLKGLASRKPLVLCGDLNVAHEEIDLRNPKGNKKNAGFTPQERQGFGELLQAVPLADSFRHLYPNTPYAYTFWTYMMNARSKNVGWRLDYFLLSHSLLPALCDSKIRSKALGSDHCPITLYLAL

## CCn1c2ccccc2c2cc(/C=N/Nc3cc(C)nc4cc5c(cc34)OCO5)ccc21 [Compound 4]
[1]; 72 h MTS assay
  LD50 of MeLex in the presence of LD10 concentration of inhibitor: 49 µM
[1]; short term assay
  maximum potentiation of MeLex: approximately 5 fold
[2]; 72 h MTS assay
  LD10 concentration: 0.25 µM
[2]; MTS assay, T98G
  LD50: 960 nM
[3]
  GI50: 0.133 µM
[4]; long term (clonogenic) assay, T98G
  LD50 / toxicity: 190 nM
[4]; long term assay
  LD10 concentration: 0.08 µM
[5]
  effect in combination with Vemurafenib: >additive
[6]
  pKi: 6.68
